Test results from PubChem BioAssay AID1963828 (Molecular Pharmacology Branch, DTP, NCI, 2024).

System: 991263-137-R1-J2-PDC complex spheroid viability
Experiment: Anticancer human tumor 991263-137-R1-J2-PDC patient-derived colon adenocarcinoma cell line growth inhibition [POLQ]
Settings: for IC50: curve of first compound; for viability, T/C: stronger effect = lower value
Description: Multicellular complex tumor spheroid response to Polymerase (POL) inhibitors (novobiocin, ART-558, RP6685) in combination with a variety of drugs and investigational agents in selected tumor cell lines
The POL inhibitors (novobiocin, ART-558, and RP6685) were evaluated both individually and in combination with standard of care and investigational anticancer small molecules within a complex spheroid model of solid tumors. . Complex spheroids include a stromal component modeled by human endothelial cells (HUVEC) and fibroblasts modeled by human mesenchymal stem cells (MSCs). The concentration ranges selected for each drug and investigational agent were based upon clinically achievable concentrations if the clinical Cmax of the agent was known.
Compounds. The drugs and investigational agents: novobiocin (NSC847541), ART-558 (NSC835418), RP-6685 (NSC848927), peposertib (NSC802822), ceralasertib (NSC780249), elimusertib (NSC800525), camonsertib (NSC841442), AZD-1390 (NSC803789), olaparib (NSC753686), talazoparib (NSC767125), rucaparib (NSC756644), sotorasib (NSC818433), MRTX-1133 (NSC836407), SN-38 (NSC673596), topotecan (NSC609699), epotoside (NSC141540), doxorubicin (NSC123127), gemcitabine (NSC613327), 5-fluorouracil (NSC19893), paclitaxel (NSC125973), vemurafenib (NSC761431), MSA-2 (NSC828583), SN-011 (NSC837082), adavosertib (NSC754352), prexasertib (NSC758257), carboplatin (NSC241240) and oxaliplatin (NSC266046), were obtained from the National Cancer Institute (NCI) Developmental Therapeutics Program Chemical Repository (21). The FDA-approved anticancer drug set is available from the Developmental Therapeutics Program at https://dtp.cancer.gov/organization/dscb/obtaining/. […] The stock solutions were prepared in dimethyl sulfoxide (DMSO, Sigma-Aldrich, St. Louis, MO, cat. D2650), except for the platinum compounds which were prepared in saline (Quality Biological, Gaithersburg, MD, cat. 114-055-101), at 800-fold the tested concentration and stored at -70 degrees C prior to their use. All drugs and investigational agents were tested over a range starting from a high concentration at or near the clinical Cmax and decreasing in half-log increments. If the clinical Cmax for an agent had not been determined, the highest concentration tested was 10 microM, except for SN-38, which was tested at a high concentration of 1 microM.
Cell Culture. All cells were maintained in an incubator at 37 degrees C and 5% CO2 with 95% humidity. The PDC lines were cultured according to standard operating procedures established by the NCI PDMR (https://pdmr.cancer.gov). Table 3 of the manuscript, lists the cell lines along with the number of the three cell types plated to form the mct-spheroids and media for tumor cell growth. After thawing, all PDC lines, except 997537-175-T-J1-PDC and 415267-285-R-J2-PDC, were cultured in Matrigel-coated flasks prepared with a working solution of 1X Ham's F-12 nutrient mix, without supplementation (Thermo Fisher Scientific, cat. 11765054), 100 U/mL penicillin-streptomycin (Thermo Fisher Scientific, cat. 15140122), and 2.5% Matrigel (Corning Inc., Corning, NY, cat. 354248) for the first three passages. The two PDC lines 997537-175-T-J1-PDC and 415267-285-R-J2-PDC were cultured on uncoated flasks. The 857933-349-R-J2-PDC line was cultured in 6C/Colon 1B media containing advanced DMEM/F-12 (Thermo Fisher Scientific, cat. 12634028), 10 mM HEPES (Thermo Fisher Scientific, cat. 15630080), 1X GlutaMAX supplement (Thermo Fisher Scientific, cat. 35050061), 0.1 mg/mL primocin (InvivoGen, San Diego, CA, cat. ant-pm-2), 10% defined fetal bovine serum, heat inactivated (HyClone Laboratories Inc., Logan, UT, cat. SH30070.03HI), 50% L-WRN conditioned media (ATCC, cat. CRL-3276), 1.25 mM N-Acetyl-L-cysteine (Sigma-Aldrich, cat. A9165), 10 mM nicotinamide (Sigma-Aldrich, cat. N0636), 1X B-27 supplement (Thermo Fisher Scientific, cat. 17504044), 1X N-2 supplement (Thermo Fisher Scientific, cat. […]

[1] = second compound 0.0316 µM, first compound 0.0316 µM
[2] = second compound 0.0316 µM, first compound 0.1 µM
[3] = second compound 0.0316 µM, first compound 0.316 µM
[4] = second compound 0.0316 µM, first compound 1 µM
[5] = second compound 0.1 µM, first compound 0.0316 µM
[6] = second compound 0.1 µM, first compound 0.1 µM
[7] = second compound 0.1 µM, first compound 0.316 µM
[8] = second compound 0.1 µM, first compound 1 µM
[9] = second compound 0.316 µM, first compound 0.0316 µM
[10] = second compound 0.316 µM, first compound 0.1 µM
[11] = second compound 0.316 µM, first compound 0.316 µM
[12] = second compound 0.316 µM, first compound 1 µM
[13] = second compound 1 µM, first compound 0.0316 µM
[14] = second compound 1 µM, first compound 0.1 µM
[15] = second compound 1 µM, first compound 0.316 µM
[16] = second compound 1 µM, first compound 1 µM
[17] = second compound 3.16 µM, first compound 0.0316 µM
[18] = second compound 3.16 µM, first compound 0.1 µM
[19] = second compound 3.16 µM, first compound 0.316 µM
[20] = second compound 3.16 µM, first compound 1 µM
[21] = second compound 10 µM, first compound 0.0316 µM
[22] = second compound 10 µM, first compound 0.1 µM
[23] = second compound 10 µM, first compound 0.316 µM
[24] = second compound 10 µM, first compound 1 µM
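Further: spheroids exposed to compounds for 7 days before readout.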
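Wherever viability, T/C is given: 100% = DMSO vehicle control viability.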

O=c1[nH]cc(F)c(=O)[nH]1 + Cc1cccc(N(C)C(=O)C2C(O)CCN2c2nc(C)cc(C(F)(F)F)c2C#N)c1
IC50 (second compound 0.0316 µM): > 10 µM
IC50 (second compound 0.1 µM): > 10 µM
IC50 (second compound 0.316 µM): > 10 µM
IC50 (second compound 1 µM): > 10 µM
IC50 (second compound 3.16 µM): > 10 µM
IC50 (second compound 10 µM): > 10 µM
viability, T/C [1]: 102%
viability, T/C [2]: 116%
viability, T/C [3]: 94%
viability, T/C [4]: 75.6%
viability, T/C (second compound 0.0316 µM, first compound 3.16 µM): 74.8%
viability, T/C (second compound 0.0316 µM, first compound 10 µM): 84.3%
viability, T/C [5]: 107%
viability, T/C [6]: 90.7%
viability, T/C [7]: 79.6%
viability, T/C [8]: 93.4%
viability, T/C (second compound 0.1 µM, first compound 3.16 µM): 85.8%
viability, T/C (second compound 0.1 µM, first compound 10 µM): 82.3%
viability, T/C [9]: 124%
viability, T/C [10]: 101%
viability, T/C [11]: 93%
viability, T/C [12]: 83.3%
viability, T/C (second compound 0.316 µM, first compound 3.16 µM): 77.2%
viability, T/C (second compound 0.316 µM, first compound 10 µM): 80.9%
viability, T/C [13]: 110%
viability, T/C [14]: 108%
viability, T/C [15]: 97.3%
viability, T/C [16]: 90.8%
viability, T/C (second compound 1 µM, first compound 3.16 µM): 85.4%
viability, T/C (second compound 1 µM, first compound 10 µM): 76%
viability, T/C [17]: 108%
viability, T/C [18]: 94.8%
viability, T/C [19]: 102%
viability, T/C [20]: 90.2%
viability, T/C (second compound 3.16 µM, first compound 3.16 µM): 82.5%
viability, T/C (second compound 3.16 µM, first compound 10 µM): 62.2%
viability, T/C [21]: 115%
viability, T/C [22]: 95.4%
viability, T/C [23]: 94.1%
viability, T/C [24]: 70%
viability, T/C (second compound 10 µM, first compound 3.16 µM): 85%
viability, T/C (second compound 10 µM, first compound 10 µM): 69.6%

COc1cccc(OCCCN)c1-c1cc(Nc2cnc(C#N)cn2)n[nH]1 + Nc1ccc(C#CCN(C(=O)Cc2ncc(C(F)(F)F)cc2C(F)(F)F)c2ccc(F)cc2)nn1
IC50 (second compound 0.0316 µM): 0.718 µM
IC50 (second compound 0.1 µM): 0.587 µM
IC50 (second compound 0.316 µM): 0.666 µM
IC50 (second compound 1 µM): 0.728 µM
IC50 (second compound 3.16 µM): 0.425 µM
IC50 (second compound 10 µM): 0.0874 µM
viability, T/C (second compound 0.0316 µM, first compound 0.00316 µM): 114%
viability, T/C (second compound 0.0316 µM, first compound 0.01 µM): 89.4%
viability, T/C [1]: 105%
viability, T/C [2]: 83.4%
viability, T/C [3]: 55.9%
viability, T/C [4]: 47.5%
viability, T/C (second compound 0.1 µM, first compound 0.00316 µM): 104%
viability, T/C (second compound 0.1 µM, first compound 0.01 µM): 105%
viability, T/C [5]: 100%
viability, T/C [6]: 82.8%
viability, T/C [7]: 57.8%
viability, T/C [8]: 43.5%
viability, T/C (second compound 0.316 µM, first compound 0.00316 µM): 102%
viability, T/C (second compound 0.316 µM, first compound 0.01 µM): 106%
viability, T/C [9]: 103%
viability, T/C [10]: 85.1%
viability, T/C [11]: 67.9%
viability, T/C [12]: 40.7%
viability, T/C (second compound 1 µM, first compound 0.00316 µM): 106%
viability, T/C (second compound 1 µM, first compound 0.01 µM): 95.2%
viability, T/C [13]: 89.4%
viability, T/C [14]: 80.9%
viability, T/C [15]: 70.5%
viability, T/C [16]: 42%
viability, T/C (second compound 3.16 µM, first compound 0.00316 µM): 102%
viability, T/C (second compound 3.16 µM, first compound 0.01 µM): 93.2%
viability, T/C [17]: 83.4%
viability, T/C [18]: 70.4%
viability, T/C [19]: 51.5%
viability, T/C [20]: 41.4%
viability, T/C (second compound 10 µM, first compound 0.00316 µM): 93.3%
viability, T/C (second compound 10 µM, first compound 0.01 µM): 96.5%
viability, T/C [21]: 73%
viability, T/C [22]: 46.8%
viability, T/C [23]: 49.9%
viability, T/C [24]: 44.2%
